Laboratory results as given in US20240108602A1, “TREATMENT OF MENTAL DISORDERS” (GH Research Ireland Limited, priority 2022, published 2024).

Tests used:
[1] = Pharmacokinetics of 5-MeO-DMT and bufotenine after inhalation, LC-MS/MS; assay type: in vivo, human
Procedure: Blood samples were obtained at 1; 2; 4; 7; 10; 15; 20; 30; 45 min and 1; 1.5; 2; 3; 4 hours after administration.
PK parameters were generated by algebraic analysis of the concentration versus time plots for each individual. The analysis was carried out using the software Phoenix WinNonlin 6.3.

[2] = tested on: Salmonella typhimurium (TA98, TA100, TA1535 and TA1537); assay: Bacterial mutation test, Salmonella typhimurium; assay type: cell-based
Source text: These conditions included treatments at concentrations up to […] (the maximum recommended concentration according to current regulatory guidelines), in the absence and in the presence of a rat liver metabolic activation system (S-9).

[3] = 5-MeO-DMT, 5-MIAA and bufotenine in urine, serum and breastmilk of a lactating PPD patient, LC-MS/MS
Procedure: The second patients was lactating, and, per the clinical trial protocol, breastmilk samples were collected pre-dosing and at multiple timepoints after administration of the last dose. […] Similar analyses were carried out on patient serum and urine samples.

[4] = 1.0 hrs after last dose (6 mg then 12 mg 5-MeO-DMT)

In the case of `COc1ccc2[nH]cc(CCN(C)C)c2c1` [5-MeO-DMT], the “plasma concentration as % of Cmax” value ([1]; 10 minutes after administration, 6-18 mg) is reported as at most 10%, the “plasma concentration as % of Cmax” value ([1]; after 2 hours, 6-18 mg) is reported as at most 1% and the detectability in plasma ([1]; after 3 hours, 6-18 mg) is reported as “no longer detectable”. The “5-MeO-DMT still present, % Cmax” value ([1]; after about 1 hour, healthy volunteers and PPD patients) was “less than 10%”, the “accumulation upon repeated administration” value ([1]; repeat within 1 to 4 hours) was “No accumulation” and the “in vitro genotoxicity assessment” value [2] was “negative”. The induction of mutation ([2]; up to 5000 μg/plate, with and without S-9) was “did not induce mutation”, the Breastmilk concentration [3, 4] was 2167.0 pg/mL and the Serum concentration [3, 4] was 0.1329 ng/mL. The Breastmilk concentration ([3]; 2.5 hrs after last dose) was 560.6 pg/mL, the Serum concentration ([3]; 2.5 hrs after last dose) was “BLQ (BLQ: Below limit of quantification. The lower limit of quantification is 25 pg/ml for both 5-MeO-DMT and 5-MIAA in both serum and breastmilk; it is 25 pg/ml in urine for 5-MeO-DMT and 250 pg/ml for 5-MIAA in urine.)” and the Urine concentration ([3]; 2.5 hrs after last dose) was 566.7 pg/mL. For the same molecule, the Breastmilk concentration ([3]; 8.5 hrs after last dose) was 42.1 pg/mL, the Urine concentration ([3]; 8.5 hrs after last dose) was “BLQ (BLQ: Below limit of quantification. The lower limit of quantification is 25 pg/ml for both 5-MeO-DMT and 5-MIAA in both serum and breastmilk; it is 25 pg/ml in urine for 5-MeO-DMT and 250 pg/ml for 5-MIAA in urine.)” and the Breastmilk concentration ([3]; 24.0 hrs after last dose) was “did not detect any 5-MeO-DMT and BLG”. For the same molecule, the Serum concentration ([3]; 24.0 hrs after last dose) was “BLQ (BLQ: Below limit of quantification. The lower limit of quantification is 25 pg/ml for both 5-MeO-DMT and 5-MIAA in both serum and breastmilk; it is 25 pg/ml in urine for 5-MeO-DMT and 250 pg/ml for 5-MIAA in urine.)”, the Urine concentration ([3]; 24.0 hrs after last dose) was “BLQ (BLQ: Below limit of quantification. The lower limit of quantification is 25 pg/ml for both 5-MeO-DMT and 5-MIAA in both serum and breastmilk; it is 25 pg/ml in urine for 5-MeO-DMT and 250 pg/ml for 5-MIAA in urine.)” and the Breastmilk concentration ([3]; 120.0 hrs after last dose) was “BLQ (BLQ: Below limit of quantification. The lower limit of quantification is 25 pg/ml for both 5-MeO-DMT and 5-MIAA in both serum and breastmilk; it is 25 pg/ml in urine for 5-MeO-DMT and 250 pg/ml for 5-MIAA in urine.)”. The Serum concentration ([3]; 120.0 hrs after last dose) was “BLQ (BLQ: Below limit of quantification. The lower limit of quantification is 25 pg/ml for both 5-MeO-DMT and 5-MIAA in both serum and breastmilk; it is 25 pg/ml in urine for 5-MeO-DMT and 250 pg/ml for 5-MIAA in urine.)”, the Urine concentration ([3]; 120.0 hrs after last dose) was “BLQ (BLQ: Below limit of quantification. The lower limit of quantification is 25 pg/ml for both 5-MeO-DMT and 5-MIAA in both serum and breastmilk; it is 25 pg/ml in urine for 5-MeO-DMT and 250 pg/ml for 5-MIAA in urine.)” and the Breastmilk concentration ([3]; −24.0 hrs (pre-dosing)) was “BLQ (BLQ: Below limit of quantification. The lower limit of quantification is 25 pg/ml for both 5-MeO-DMT and 5-MIAA in both serum and breastmilk; it is 25 pg/ml in urine for 5-MeO-DMT and 250 pg/ml for 5-MIAA in urine.)”. For the same molecule, the Serum concentration ([3]; −24.0 hrs (pre-dosing)) was “BLQ (BLQ: Below limit of quantification. The lower limit of quantification is 25 pg/ml for both 5-MeO-DMT and 5-MIAA in both serum and breastmilk; it is 25 pg/ml in urine for 5-MeO-DMT and 250 pg/ml for 5-MIAA in urine.)” and the Urine concentration ([3]; −24.0 hrs (pre-dosing)) was “BLQ (BLQ: Below limit of quantification. The lower limit of quantification is 25 pg/ml for both 5-MeO-DMT and 5-MIAA in both serum and breastmilk; it is 25 pg/ml in urine for 5-MeO-DMT and 250 pg/ml for 5-MIAA in urine.)”.
